Laboratory results reported in PMC5522084, “Eg5 inhibitor YL001 induces mitotic arrest and inhibits tumor proliferation” (Oncotarget, 2017).

What follows are compounds tested against T1, Eg5 motor domain (Homo sapiens, UniProt P52732) (assay: SPR assay (Biacore T200)). Conditions: SPR Biacore T200, 25°C.
T1 sequence (P52732 18-359 limits assumed): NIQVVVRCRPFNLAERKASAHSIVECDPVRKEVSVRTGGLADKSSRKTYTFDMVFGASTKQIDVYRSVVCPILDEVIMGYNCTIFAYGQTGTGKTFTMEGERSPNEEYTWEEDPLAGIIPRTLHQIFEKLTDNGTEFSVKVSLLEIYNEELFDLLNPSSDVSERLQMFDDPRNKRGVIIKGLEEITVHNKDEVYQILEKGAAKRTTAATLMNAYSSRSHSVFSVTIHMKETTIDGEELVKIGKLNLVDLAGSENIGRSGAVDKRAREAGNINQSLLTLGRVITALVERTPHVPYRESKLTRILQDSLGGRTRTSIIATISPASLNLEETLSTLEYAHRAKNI
Type: binding
Description: Interactions of the Eg5 motor domain and compounds of interest were analyzed using the Biacore T200 system (GE Healthcare, Uppsala, Sweden) at 25°C. Eg5 motor protein obtained as previously described (51) was immobilized on a sensor chip (CM5) using an amine coupling kit (GE Healthcare, Buckinghamshire, UK). […] For binding studies, analytes were applied at corresponding concentrations in running buffer at a flow rate of 30 μL/minute with a contact time of 60 seconds and a dissociation time of 60 seconds. Chip platforms were washed with running buffer and 50% DMSO. Data were analyzed with Biacore evaluation software (T200 Version 1.0) by curve fitting using a steady state 1:1 binding model and a kinetic model.

Structure (SMILES)	Kd [µM]
COc1ccc(C(OCC2OC(n3cnc4c(N)ncnc43)C(O)C2O)(c2ccccc2)c2ccccc2)cc1 (stereo not drawn) [Compound 7170]	1.13

Same assay, conditions: SPR screening

Structure (SMILES)	Binding Level (RU)
NC1=C(C(=O)OCc2ccccc2)C2(C(=O)Nc3ccc(Br)cc32)C2=C(CCCC2=O)O1 (stereo not drawn) [AK-777/10805059]	20.7
O=[N+]([O-])c1ccc(COc2ccccc2C2N(Cc3ccccc3)CCN2Cc2ccccc2)cc1 [AG-205/14740101]	27.7
CCOC(=O)C1C2c3ccccc3C(c3ccccc32)C1C(=O)OCC (stereo not drawn) [AE-842/33003047]	14.6
Cc1ccc(-n2nnnc2/C(=C/N(C)C)C(=O)c2cccc(C(F)(F)F)c2)cc1 [AG-401/37257005]	18.8
N#CC1=C(N)Oc2n[nH]c(-c3cccc4ccccc34)c2C1c1cccc(O)c1 (stereo not drawn) [AJ-292/15089069]	100.1
CC1(C)CC(=O)C2=C(C1)OC(N)=C(C#N)C21C(=O)N(Cc2ccccc2Cl)c2ccccc21 (stereo not drawn) [AM-807/14957480]	16.3
Cc1ccc(C2C3=C(CCCC3=O)N(c3ccc(Br)cc3)C(=N)/C2=C(/O)c2ccccc2)cc1 (stereo not drawn) [AN-919/14547113]	1.9
Cc1ccc(SC(c2ccccc2)C(Cn2cncn2)C(=O)c2ccc(Br)cc2)cc1 (stereo not drawn) [AQ-714/41675002]	2.3
CC(=O)C1=NN(c2ccc(C)cc2)C(c2c[nH]c3ccccc23)N1c1ccc(C)cc1 (stereo not drawn) [AN-465/13570058]	7.4
COC(=O)C1NC(c2ccc(F)cc2)(c2ccc(F)cc2)C2C(=O)N(c3ccc(Cl)cc3)C(=O)C12 (stereo not drawn) [AH-487/42271989]	31.9
Cc1ccc(N2C(=N)/C(=C(/O)c3ccccc3)C(c3ccc([N+](=O)[O-])cc3)C3=C2CCCC3=O)cc1Cl (stereo not drawn) [AN-919/14545008]	57.7
CCOC(=O)C1=CN2C(C=C1)C(C(=C(C#N)C#N)C1CC1)C(c1ccccc1)C2C(=O)c1ccccc1 (stereo not drawn) [AG-205/33162003]	32.8

Next, values leading:

Binding Level (RU)	Structure (SMILES)
59.8	CC(=O)C1=NN(c2ccc(Cl)cc2)C(c2ccc3c(c2)OCO3)N1c1ccccc1 (stereo not drawn) [AK-778/11811129]
56.4	Cc1ccc(N=C2S/C(=C/c3ccccc3OCC(=O)N3CCOCC3)C(=O)N2Cc2ccccc2)cc1 [AO-081/41364431]
60.7	CCc1cc(C(c2ccccc2F)N2CCOCC2)c(NC(=O)c2ccccc2)s1 (stereo not drawn) [AP-906/42853823]
8.7	Cn1cc(C2C(=O)NC(c3ccccc3)=NN2C(=O)c2ccccc2)c2ccccc21 (stereo not drawn) [AG-227/37394007]
69.6	N=C1/C(=C(/O)c2ccccc2)C(c2ccccc2)C2=C(CCCC2=O)N1c1ccc(Br)cc1 (stereo not drawn) [AN-919/14547075]
56.6	Cc1ccc(/C(O)=C2\C(=N)N(c3ccccc3)C3=C(C(=O)CCC3)C2c2ccccc2)cc1 (stereo not drawn) [AN-919/14547078]
36.9	OC(COCc1ccc2c(c1)OCO2)CN1CCN(C(c2ccccc2)c2ccccc2)CC1 (stereo not drawn) [AF-399/14739190]
44.5	Cc1ccc(N2C(=O)CSC23C(=O)N(CN2CCN(c4ccccc4)CC2)c2ccccc23)cc1C (stereo not drawn) [AG-205/13460017]
61.1	COC(=O)CN1C(c2ccccc2)=Nc2ccc(Br)cc2C1c1ccccc1 (stereo not drawn) [AG-690/36921098]
3.8	CC(=O)Nc1sc2c(c1C(c1ccc(OC(F)F)cc1)N1CCOCC1)CCCC2 (stereo not drawn) [AF-399/41981012]
3.4	CN(C)CCN1C(=O)C(=O)/C(=C(/O)c2ccccc2)C1c1ccc2c(c1)OCO2 (stereo not drawn) [AG-205/13765047]

The compounds below were run against Eg5 (Homo sapiens, UniProt P52732) (assay: Inhibition of Eg5 ATPase activity). Conditions: read-out: Enzyme EC50.
Sequence of Eg5 (P52732 whole entry): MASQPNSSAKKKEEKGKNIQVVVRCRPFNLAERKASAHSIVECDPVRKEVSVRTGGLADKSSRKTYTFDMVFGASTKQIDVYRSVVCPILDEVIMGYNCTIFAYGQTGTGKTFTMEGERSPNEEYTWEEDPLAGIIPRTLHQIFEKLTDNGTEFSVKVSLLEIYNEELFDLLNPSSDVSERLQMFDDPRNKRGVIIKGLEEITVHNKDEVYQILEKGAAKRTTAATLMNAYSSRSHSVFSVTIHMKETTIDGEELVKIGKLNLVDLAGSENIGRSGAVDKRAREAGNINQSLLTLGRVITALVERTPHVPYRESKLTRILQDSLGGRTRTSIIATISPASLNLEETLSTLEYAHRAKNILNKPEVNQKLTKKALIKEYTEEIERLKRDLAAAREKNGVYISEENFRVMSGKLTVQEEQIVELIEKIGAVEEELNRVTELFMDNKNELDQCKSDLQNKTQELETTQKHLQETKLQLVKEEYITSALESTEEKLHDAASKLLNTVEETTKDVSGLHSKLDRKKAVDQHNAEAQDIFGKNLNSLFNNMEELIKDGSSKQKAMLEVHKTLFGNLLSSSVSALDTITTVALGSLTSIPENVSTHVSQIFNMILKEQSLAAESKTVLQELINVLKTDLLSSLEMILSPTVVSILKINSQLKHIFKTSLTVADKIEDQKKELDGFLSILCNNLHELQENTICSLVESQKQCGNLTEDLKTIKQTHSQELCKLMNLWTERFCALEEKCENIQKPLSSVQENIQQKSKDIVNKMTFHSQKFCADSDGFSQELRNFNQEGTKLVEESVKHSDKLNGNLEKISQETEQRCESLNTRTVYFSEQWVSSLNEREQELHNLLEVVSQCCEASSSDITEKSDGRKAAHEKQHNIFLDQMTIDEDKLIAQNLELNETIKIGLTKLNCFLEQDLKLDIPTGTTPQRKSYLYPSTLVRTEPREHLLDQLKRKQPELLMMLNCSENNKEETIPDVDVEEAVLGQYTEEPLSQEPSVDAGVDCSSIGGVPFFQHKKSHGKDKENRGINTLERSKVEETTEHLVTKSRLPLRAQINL
Type: biochemical
Description: All experiments were performed as previously described. Data were analyzed using GraphPad Prism 5 and Microsoft Excel to obtain EC50 values. […] Each inhibitory concentration was measured in triplicate, and averaged data points ± SD are shown.

Structure (SMILES)	EC50 [µM]
COc1ccc(C(OCC2OC(n3cnc4c(N)ncnc43)C(O)C2O)(c2ccccc2)c2ccccc2)cc1 (stereo not drawn) [Compound 7170]	18

Each compound was assayed on human cancer cell lines (assay: Antiproliferation screening of 23 selected compounds (Alamar Blue)). Conditions: proliferation inhibition.
Type: cell-based
Description: (§1) Cytotoxic activities of the compounds of interest were investigated with human cancer cell lines using the Alamar Blue assay. Cells (5 × 10^3 cells/well) were seeded into 96-well plates (Corning, 3603). Various sample concentrations (compounds of interest) were added to each well in duplicate, and incubated at 37°C with 5% CO2 for two days such that cells were in the exponential growth phase at the time of drug addition. Ten microliters of the Alamar Blue Solution (Invitrogen, Alamar Blue) were added to each well and incubated at 37°C for up to 2 hours in a humidified, 5% CO2 atmosphere. After incubation, florescence was measured using a microplate reader (Tecan) at an excitation wavelength of 540 nm and emission of 590 nm. Each inhibitory concentration was measured in triplicate, and averaged data points ± SD are shown. Statistical analysis was carried out with GraphPad Prism 5 and the fifty-percent effective concentration is expressed as EC50.

Structure (SMILES)	Inhibition (50 μM)
CC(=O)C1=NN(c2ccc(Cl)cc2)C(c2ccc3c(c2)OCO3)N1c1ccccc1 (stereo not drawn) [AK-778/11811129]	9.38%
Cc1ccc(N=C2S/C(=C/c3ccccc3OCC(=O)N3CCOCC3)C(=O)N2Cc2ccccc2)cc1 [AO-081/41364431]	29.79%
NC1=C(C(=O)OCc2ccccc2)C2(C(=O)Nc3ccc(Br)cc32)C2=C(CCCC2=O)O1 (stereo not drawn) [AK-777/10805059]	31.51%
CCc1cc(C(c2ccccc2F)N2CCOCC2)c(NC(=O)c2ccccc2)s1 (stereo not drawn) [AP-906/42853823]	19.16%
Cn1cc(C2C(=O)NC(c3ccccc3)=NN2C(=O)c2ccccc2)c2ccccc21 (stereo not drawn) [AG-227/37394007]	97.78%
O=[N+]([O-])c1ccc(COc2ccccc2C2N(Cc3ccccc3)CCN2Cc2ccccc2)cc1 [AG-205/14740101]	0.87%
N=C1/C(=C(/O)c2ccccc2)C(c2ccccc2)C2=C(CCCC2=O)N1c1ccc(Br)cc1 (stereo not drawn) [AN-919/14547075]	27.56%
Cc1ccc(/C(O)=C2\C(=N)N(c3ccccc3)C3=C(C(=O)CCC3)C2c2ccccc2)cc1 (stereo not drawn) [AN-919/14547078]	30.07%
OC(COCc1ccc2c(c1)OCO2)CN1CCN(C(c2ccccc2)c2ccccc2)CC1 (stereo not drawn) [AF-399/14739190]	22.02%
CCOC(=O)C1C2c3ccccc3C(c3ccccc32)C1C(=O)OCC (stereo not drawn) [AE-842/33003047]	–30.66%
Cc1ccc(-n2nnnc2/C(=C/N(C)C)C(=O)c2cccc(C(F)(F)F)c2)cc1 [AG-401/37257005]	95.06%
N#CC1=C(N)Oc2n[nH]c(-c3cccc4ccccc34)c2C1c1cccc(O)c1 (stereo not drawn) [AJ-292/15089069]	58.97%
CC1(C)CC(=O)C2=C(C1)OC(N)=C(C#N)C21C(=O)N(Cc2ccccc2Cl)c2ccccc21 (stereo not drawn) [AM-807/14957480]	30.76%
Cc1ccc(C2C3=C(CCCC3=O)N(c3ccc(Br)cc3)C(=N)/C2=C(/O)c2ccccc2)cc1 (stereo not drawn) [AN-919/14547113]	21.56%
Cc1ccc(SC(c2ccccc2)C(Cn2cncn2)C(=O)c2ccc(Br)cc2)cc1 (stereo not drawn) [AQ-714/41675002]	32.65%
CC(=O)C1=NN(c2ccc(C)cc2)C(c2c[nH]c3ccccc23)N1c1ccc(C)cc1 (stereo not drawn) [AN-465/13570058]	98.24%
Cc1ccc(N2C(=O)CSC23C(=O)N(CN2CCN(c4ccccc4)CC2)c2ccccc23)cc1C (stereo not drawn) [AG-205/13460017]	30.78%
COC(=O)CN1C(c2ccccc2)=Nc2ccc(Br)cc2C1c1ccccc1 (stereo not drawn) [AG-690/36921098]	21.81%
CC(=O)Nc1sc2c(c1C(c1ccc(OC(F)F)cc1)N1CCOCC1)CCCC2 (stereo not drawn) [AF-399/41981012]	14.85%
CN(C)CCN1C(=O)C(=O)/C(=C(/O)c2ccccc2)C1c1ccc2c(c1)OCO2 (stereo not drawn) [AG-205/13765047]	–18.48%
COC(=O)C1NC(c2ccc(F)cc2)(c2ccc(F)cc2)C2C(=O)N(c3ccc(Cl)cc3)C(=O)C12 (stereo not drawn) [AH-487/42271989]	41.63%
Cc1ccc(N2C(=N)/C(=C(/O)c3ccccc3)C(c3ccc([N+](=O)[O-])cc3)C3=C2CCCC3=O)cc1Cl (stereo not drawn) [AN-919/14545008]	26.79%
CCOC(=O)C1=CN2C(C=C1)C(C(=C(C#N)C#N)C1CC1)C(c1ccccc1)C2C(=O)c1ccccc1 (stereo not drawn) [AG-205/33162003]	60.89%

Each compound was assayed on HeLa (assay: Antiproliferation assay (Alamar Blue), HeLa). Conditions: Homo sapiens, 48 h, HeLa cell line, two days.
Type: cell-based
Description: as §1

Structure (SMILES)	EC50 [µM]
N[C@@H](CSC(c1ccccc1)(c1ccccc1)c1ccccc1)C(=O)O [STLC, S-Trityl-L-cysteine, reference compound]	1.46 ± 0.06
COc1ccc(C(OCC2OC(n3cnc4c(N)ncnc43)C(O)C2O)(c2ccccc2)c2ccccc2)cc1 (stereo not drawn) [Compound 7170]	13.3 ± 1.32

Each compound was assayed on HeLa cells (assay: Colony formation). Conditions: Homo sapiens, exposed 24 hours, cultured 10 days.
Type: cell-based
Description: HeLa cells (5 × 10^2 cells/well) were seeded into 6-well plates and were treated with a series of gradient concentrations of YL001 for 24 hours, followed by washing and continual culture for 10 days. DMSO was used as a negative control, and STLC was used as a positive control. Cells were fixed with ethanol for more than 30 minutes and dyed with crystal violet for more than 30 minutes. Clones were counted with OpenCFU [54].

Structure (SMILES)	IC50 [µM]
N[C@@H](CSC(c1ccccc1)(c1ccccc1)c1ccccc1)C(=O)O [STLC, S-Trityl-L-cysteine, reference compound]	1.25
